Patent US20230123334A1, “AMINO LIPID COMPOUND, PREPARATION METHOD THEREFOR, AND APPLICATION THEREOF” (SHENZHEN SHENXIN BIOTECHNOLOGY CO., LTD., priority 2020, published 2023)

The compounds below were run on HEK293 cells (assay: Preliminary screening as DNA vectors, GFP transfection of HEK293 cells). Conditions: amino lipid/DOPE liposome with 75 ng plasmid DNA (psin-EGFP-IRES-Puro); number of GFP-expressing cells divided by total nuclei (Hoechst).
Assay type: cell-based
In short: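 HEK293 cells in DMEM/10% FBS transfected with 75 ng EGFP plasmid per well complexed with amino lipid/DOPE liposomes in pH 5.6 sodium acetate. Hoechst nuclear stain added 20-24 h post-transfection, then cells cultured another 20-24 h. Confocal imaging gives GFP-positive cells as % of total nuclei.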

In order of rising “Absolute DNA transfection efficiency in HEK293 cells” value:
1. CCCCCCCSc1nc(NCCN2CCCCC2)nc(SCCCCCCC)n1 [S7S7 D4]  0.0%
2. CCCCCCCCSc1nc(NCCN2CCOCC2)nc(SCCCCCCC)n1 [S7S8 D2]  0.0%
3. CCCCCCCCSc1nc(NCC2CCN(C)CC2)nc(SCCCCCCC)n1 [S7S8 D10]  0.0%
4. CCCCCCCSc1nc(NCCCN2CCOCC2)nc(SCCCCCCC)n1 [S7S7 D8]  0.6%
5. CCCCCCCCCCCCCCCSc1nc(NCCCN2CCN(C)CC2)nc(SCCCCCCC)n1 [S7S15 D9]  1.6%
6. CCCCCCCCCSc1nc(NCCCN(C)C)nc(SCCCCCCC)n1 [S7S9 D6]  3.4%
7. CCCCCCCCSc1nc(NCCCN(C)C)nc(SCCCCCCC)n1 [S7S8 D6]  3.6%
8. CCCCCCCCSc1nc(NCCCN2CCOCC2)nc(SCCCCCCC)n1 [S7S8 D8]  3.7%
9. CCCCCCCCCCCCCCSc1nc(NCCCN2CCN(C)CC2)nc(SCCCCCCC)n1 [S7S14 D9]  3.8%
10. CCCCCCCCCCCCCCSc1nc(NCCN(CC)CC)nc(SCCCCCCC)n1 [S7S14 D7]  4.0%
11. CCCCCCCCCCCCCCSc1nc(NCCCN(C)C)nc(SCCCCCCC)n1 [S7S14 D6]  4.4%
12. CCCCCCCCCCCCCCCSc1nc(NCCN2CCCC2)nc(SCCCCCCC)n1 [S7S15 D3]  4.6%
13. CCCCCCCCCCSc1nc(NCCCN(C)C)nc(SCCCCCCC)n1 [S7S10 D6]  4.7%
14. CCCCCCCSc1nc(NCCN2CCN(C)CC2)nc(SCCCCCCC)n1 [S7S7 D5]  4.8%
15. CCCCCCCCCCCCSc1nc(NCCCN2CCN(C)CC2)nc(SCCCCCCC)n1 [S7S12 D9]  4.8%
16. CCCCCCCCCCCCCCCSc1nc(NCCN(CC)CC)nc(SCCCCCCC)n1 [S7S15 D7]  5.0%
17. CCCCCCCSc1nc(NCC2CCN(C)CC2)nc(SCCCCCCC)n1 [S7S7 D10]  5.5%
18. CCCCCCCCSc1nc(NCCN(CC)CC)nc(SCCCCCCC)n1 [S7S8 D7]  5.8%
19. CCCCCCCCSc1nc(NCCN(C)C)nc(SCCCCCCC)n1 [S7S8 D1]  6.7%
20. CCCCCCCCSc1nc(NCCN2CCCCC2)nc(SCCCCCCC)n1 [S7S8 D4]  7.0%
21. CCCCCCCCCCCCSc1nc(NCCN(CC)CC)nc(SCCCCCCC)n1 [S7S12 D7]  7.1%
22. CCCCCCCCCCCCCCCSc1nc(NCCCN(C)C)nc(SCCCCCCC)n1 [S7S15 D6]  7.6%
23. CCCCCCCCCCCCCCSc1nc(NCCN(C)C)nc(SCCCCCCC)n1 [S7S14 D1]  7.7%
24. CCCCCCCSc1nc(NCCCN2CCN(C)CC2)nc(SCCCCCCC)n1 [S7S7 D9]  7.9%
25. CCCCCCCCCCSc1nc(NCCN2CCCCC2)nc(SCCCCCCC)n1 [S7S10 D4]  8.1%
26. CCCCCCCCCCCCSc1nc(NCCN(C)C)nc(SCCCCCCC)n1 [S7S12 D1]  8.2%
27. CCCCCCCCCCCCCCSc1nc(NCCN2CCCC2)nc(SCCCCCCC)n1 [S7S14 D3]  8.4%
28. CCCCCCCCCCCCCCSc1nc(NCCN2CCCCC2)nc(SCCCCCCC)n1 [S7S14 D4]  9.1%
29. CCCCCCCSc1nc(NCCN2CCCC2)nc(SCCCCCCC)n1 [S7S7 D3]  9.2%
30. CCCCCCCCSc1nc(NCCN2CCCC2)nc(SCCCCCCC)n1 [S7S8 D3]  9.2%
31. CCCCCCCSc1nc(NCCN(CC)CC)nc(SCCCCCCC)n1 [S7S7 D7]  9.3%
32. CCCCCCCCCCCCCCCSc1nc(NCCN(C)C)nc(SCCCCCCC)n1 [S7S15 D1]  9.4%
33. CCCCCCCCCCCCSc1nc(NCCN2CCCCC2)nc(SCCCCCCC)n1 [S7S12 D4]  9.5%
34. CCCCCCCCCCCCSc1nc(NCCN2CCN(C)CC2)nc(SCCCCCCC)n1 [S7S12 D5]  9.6%
35. CCCCCCCCCCCSc1nc(NCCN2CCCC2)nc(SCCCCCCC)n1 [S7S11 D3]  9.7%
36. CCCCCCCCCCCCSc1nc(NCCN2CCCC2)nc(SCCCCCCC)n1 [S7S12 D3]  9.9%
37. CCCCCCCCSc1nc(NCCCN2CCN(C)CC2)nc(SCCCCCCC)n1 [S7S8 D9]  10.2%
38. CCCCCCCSc1nc(NCCCN(C)C)nc(SCCCCCCC)n1 [S7S7 D6]  10.3%
39. CCCCCCCCCCCSc1nc(NCCN(CC)CC)nc(SCCCCCCC)n1 [S7S11 D7]  10.4%
40. CCCCCCCCCCSc1nc(NCCN2CCN(C)CC2)nc(SCCCCCCC)n1 [S7S10 D5]  10.6%
41. CCCCCCCCCCCCCCSc1nc(NCCN2CCN(C)CC2)nc(SCCCCCCC)n1 [S7S14 D5]  10.7%
42. CCCCCCCCCSc1nc(NCCN(C)C)nc(SCCCCCCC)n1 [S7S9 D1]  10.8%
43. CCCCCCCCCCCSc1nc(NCCN(C)C)nc(SCCCCCCC)n1 [S7S11 D1]  10.8%
44. CCCCCCCCCCCCSc1nc(NCCCN2CCOCC2)nc(SCCCCCCC)n1 [S7S12 D8]  10.9%
45. CCCCCCCCCCCCCCCSc1nc(NCCCN2CCOCC2)nc(SCCCCCCC)n1 [S7S15 D8]  10.9%
46. CCCCCCCCCCCCCCSc1nc(NCCCN2CCOCC2)nc(SCCCCCCC)n1 [S7S14 D8]  11.0%
47. CCCCCCCCCCCSc1nc(NCCCN2CCOCC2)nc(SCCCCCCC)n1 [S7S11 D8]  11.1%
48. CCCCCCCCSc1nc(NCCN2CCN(C)CC2)nc(SCCCCCCC)n1 [S7S8 D5]  11.2%
49. CCCCCCCCCCCCCCCSc1nc(NCCN2CCCCC2)nc(SCCCCCCC)n1 [S7S15 D4]  11.6%
50. CCCCCCCCCCCCSc1nc(NCCCN(C)C)nc(SCCCCCCC)n1 [S7S12 D6]  11.7%
51. CCCCCCCCCSc1nc(NCCCN2CCOCC2)nc(SCCCCCCC)n1 [S7S9 D8]  12.2%
52. CCCCCCCCCSc1nc(NCCN2CCN(C)CC2)nc(SCCCCCCC)n1 [S7S9 D5]  12.5%
53. CCCCCCCCCCCSc1nc(NCCN2CCCCC2)nc(SCCCCCCC)n1 [S7S11 D4]  14.2%
54. CCCCCCCCCSc1nc(NCCN(CC)CC)nc(SCCCCCCC)n1 [S7S9 D7]  14.5%
55. CCCCCCCCCCCCCCCSc1nc(NCCN2CCN(C)CC2)nc(SCCCCCCC)n1 [S7S15 D5]  14.9%
56. CCCCCCCCCSc1nc(NCCN2CCCCC2)nc(SCCCCCCC)n1 [S7S9 D4]  15.1%
57. CCCCCCCCCCCCCCSc1nc(NCCN2CCOCC2)nc(SCCCCCCC)n1 [S7S14 D2]  15.9%
58. CCCCCCCCCSc1nc(NCC2CCN(C)CC2)nc(SCCCCCCC)n1 [S7S9 D10]  16.3%
59. CCCCCCCCCSc1nc(NCCCN2CCN(C)CC2)nc(SCCCCCCC)n1 [S7S9 D9]  17.1%
60. CCCCCCCCCCSc1nc(NCCCN2CCOCC2)nc(SCCCCCCC)n1 [S7S10 D8]  18.0%
61. CCCCCCCCCCCCSc1nc(NCCN2CCOCC2)nc(SCCCCCCC)n1 [S7S12 D2]  18.0%
62. CCCCCCCCCCSc1nc(NCCN2CCCC2)nc(SCCCCCCC)n1 [S7S10 D3]  19.4%
63. CCCCCCCCCCSc1nc(NCCN(CC)CC)nc(SCCCCCCC)n1 [S7S10 D7]  20.2%
64. CCCCCCCCCCCCSc1nc(NCC2CCN(C)CC2)nc(SCCCCCCC)n1 [S7S12 D10]  21.3%
65. CCCCCCCCCSc1nc(NCCN2CCCC2)nc(SCCCCCCC)n1 [S7S9 D3]  21.5%
66. CCCCCCCCCCSc1nc(NCCN(C)C)nc(SCCCCCCC)n1 [S7S10 D1]  21.8%
67. CCCCCCCCCCSc1nc(NCCN2CCOCC2)nc(SCCCCCCC)n1 [S7S10 D2]  23.6%
68. CCCCCCCCCCSc1nc(NCCCN2CCN(C)CC2)nc(SCCCCCCC)n1 [S7S10 D9]  23.9%
69. CCCCCCCCCCCCCCCSc1nc(NCCN2CCOCC2)nc(SCCCCCCC)n1 [S7S15 D2]  24.0%
70. CCCCCCCCCCSc1nc(NCC2CCN(C)CC2)nc(SCCCCCCC)n1 [S7S10 D10]  25.2%
71. CCCCCCCCCCCSc1nc(NCCCN2CCN(C)CC2)nc(SCCCCCCC)n1 [S7S11 D9]  25.9%
72. CCCCCCCCCCCCCCSc1nc(NCC2CCN(C)CC2)nc(SCCCCCCC)n1 [S7S14 D10]  26.7%
73. CCCCCCCCCCCSc1nc(NCCN2CCOCC2)nc(SCCCCCCC)n1 [S7S11 D2]  27.3%
74. CCCCCCCCCCCSc1nc(NCCCN(C)C)nc(SCCCCCCC)n1 [S7S11 D6]  28.7%
75. CCCCCCCCCSc1nc(NCCN2CCOCC2)nc(SCCCCCCC)n1 [S7S9 D2]  28.8%
76. CCCCCCCCCCCSc1nc(NCCN2CCN(C)CC2)nc(SCCCCCCC)n1 [S7S11 D5]  32.4%
77. CCCCCCCCCCCSc1nc(NCC2CCN(C)CC2)nc(SCCCCCCC)n1 [S7S11 D10]  39.1%
